Each structure is given as a SMILES string.

Consider 1 compound from patent US20080004296A1, “Organic Compounds” (priority 2004, published 2008).

The test system of the test is tobacco-smoke-enhanced cough response to 0.3 M citric acid. Kind of test: Citric acid-induced cough and Penh in tobacco smoke-exposed conscious guinea-pigs (plethysmograph). The test is classed as in vivo, guinea-pig. The conditions noted are these: 1 hour prior to citric acid challenge, mean±s.e. mean; for percentage inhibition of tobacco-smoke-enhanced cough: vs vehicle. The protocol: Male Dunkin-Hartley guinea-pigs (350-550 g) are exposed to either air or tobacco smoke generated by four research cigarettes, (2R4F; Kentucky, USA) for a 3 second puff every 30 sec, for 2 days. At 24 hours after the last exposure conscious, unrestrained animals are placed in a plethysmograph chamber (Buxco, USA) and challenged with an aerosol of 0.3 M citric acid in 0.9% saline for 10 minutes. Cough and Penh AUC (measure of bronchoconstriction) are recorded during the 10 minute exposure and for a further 10 minutes after exposure using the method described in El-Hashim A. et al. Pulmonary Pharmacology & Therapeutics 17(1) (2004) pages 11-18.
To evaluate the effects of 2-(2-Hydroxy-ethylcarbamoyloxymethyl)-5,7-dimethyl-3-(2-methylsulfamoyl-phenyl)-4-oxo-3,4-dihydro-quinazoline-6-carboxylic acid ethyl ester on the enhanced cough response, animals are dosed subcutaneously with the compound (0.3-10 mg/kg, n=3-10) or vehicle (3:1 PEG200:saline, n=10) at 1 hour prior to citric acid challenge. The percentage inhibition of the cough response following compound administration compared with vehicle administration in tobacco smoke-exposed animals is determined. Data are expressed as mean±s.e. mean and significance is defined as p<0.05 (ANOVA & Dunnett's multiple comparison test).

The mark [1] stands for this setting: 3 mg/kg subcutaneously, significant.

With `CCOC(=O)c1c(C)cc2nc(COC(=O)NCCO)n(-c3ccccc3S(=O)(=O)NC)c(=O)c2c1C` [2-(2-Hydroxy-ethylcarbamoyloxy-methyl)-5,7-dimethyl-3-(2-methylsulfamoyl-phenyl)-4-oxo-3,4-dihydro-quinazoline-6-carboxylic acid ethyl ester], the “inhibition of baseline Penh value (measure of bronchoconstriction)” value (from here on “inhibition of baseline Penh value”) (0.3 mg/kg subcutaneously) was 48±17%, the “inhibition of baseline Penh value” value (1 mg/kg subcutaneously) was determined as 55±19%, the “inhibition of baseline Penh value” value under setting [1] amounted to 77±10% and the “inhibition of baseline Penh value” value (10 mg/kg subcutaneously) was 86±2%. The “percentage inhibition of tobacco-smoke-enhanced cough” value runs as follows: (0.3 mg/kg subcutaneously) 18±14%; (1 mg/kg subcutaneously, significant) 49±17%; under setting [1], 80±13%; (10 mg/kg subcutaneously, significant) 100±0%.
